Converted amounts (≈) assume the structure as drawn. Where two headings read alike, the source gives them in different places.
Columns and labels:
Assay in all cases: in vitro anti-bacterial activity, two-fold agar plate dilution method
Type in all cases: cell-based
[1] = test system: Escherichia coli CSH(RE45); settings: 37° C., 20 hours
Method: (§1) The agent for preventing and treating bacterial infections was tested for in vitro anti-bacterial activity by the following two-fold agar plate dilution method. Each test strain was incubated for 20 hours in a bouillon for measuring sensitivity to obtain a test culture (containing about […]). Portions of sensitivity measuring agar medium containing varying concentrations of the antibacterial agent were each innoculated with a 0.005 ml portion of the culture, followed by incubation at 37° C. for 20 hours. The minimum growth inhibitory concentration (MIC) in μg/ml was then determined.
(§2) MIC=minimum inhibitory concentration

[2] = test system: Staphylococcus aureus 209P; settings: Staphylococcus aureus 209P, agar dilution, 37° C., 20 hours
Method: as §1, §2

[3] = test system: Klebsiella pneumoniae
Method: as §1, §2

[4] = test system: Proteus mirabilis
Method: as §1, §2

[5] = test system: Proteus vulgaris
Method: as §1, §2

[6] = test system: Serratia marcescens
Method: as §1, §2

[7] = test system: Pseudomonas cepacia; settings: 37° C., 20 hours
Method: as §1, §2

[8] = test system: Pseudomonas aeruginosa
Method: as §1, §2

[9] = test system: Escherichia coli NIHJ-JC2
Method: as §1, §2

[10] = agar dilution, 37° C., 20 hours, read-out: MIC
[11] = Burkholderia cepacia, read-out: MIC
[12] = NIHJJC2, Escherichia coli NIHJ-JC2, agar dilution, 37° C., 20 hours, read-out: MIC
[13] = Escherichia coli, NIHJJC2, 20 h
[14] = agar dilution, 37° C., 20 hours

Compound | MIC ([1]; read-out: MIC) [µg/mL] | MIC ([2]; read-out: MIC) [µg/mL] | MIC [3, 10] [µg/mL] | MIC [4, 10] [µg/mL] | MIC [5, 10] [µg/mL] | MIC [6, 10] [µg/mL] | MIC [7, 11] [µg/mL] | MIC [8, 10] [µg/mL] | MIC [9, 12] [µg/mL] | MIC ([4]; 20 h) [µg/mL] | MIC ([5]; 20 h) [µg/mL] | MIC ([3]; 20 h) [µg/mL] | MIC ([6]; 20 h) [µg/mL] | further results
C=CCO/N=C(\C(=O)NC1C(=O)N2C(C(=O)[O-])=C(C[n+]3ccn(C)c3)CSC12)c1csc(N)n1 (stereo not drawn) [E, 7-[2-(2-aminothiazole-4-yl)-2-(2-propenyloxyimino)acetamide]-3-(3-methyl-1-imidazoliomethyl)-3-cephem-4-carboxylate] | 0.05 (≈ 0.0993 µM) | 0.78 (≈ 1.55 µM) | 0.02 (≈ 0.0397 µM) | 0.78 (≈ 1.55 µM) | 0.39 (≈ 0.774 µM) | 1.56 (≈ 3.1 µM) | > 50 | 12.5 (≈ 24.8 µM) | 0.2 (≈ 0.397 µM) |  |  |  |  | 
CC(C)(O/N=C(\C(=O)NC1C(=O)N2C(C(=O)[O-])=C(C[n+]3cn(Cc4ccccc4)c4ccccc43)CSC12)c1csc(N)n1)C(=O)O (stereo not drawn) [P, 7-{2-(2-aminothiazole-4-yl)-2-[potassium(2,2-dimethylacetate)oxyimino]acetamide}-3-(benz-3-N-benzyl-1-imidazoliomethyl)-3-cephem-4-carboxylate] | 1.56 | 3.13 | 6.25 |  |  | 6.25 | 50 | 6.25 | 3.13 | 3.13 | 1.56 |  |  | 
C=CCn1c[n+](CC2=C(C(=O)[O-])N3C(=O)C(NC(=O)/C(=N\OC)c4csc(N)n4)C3SC2)c2ccccc21 (stereo not drawn) [V, 7-[2-(2-aminothiazole-4-yl)-2-methoxyiminoacetamide}-3-[benz-3-N-(2-propenyl)-1-imidazoliomethyl]-3-cephem-4-carboxylate] | 3.13 (≈ 5.65 µM) | 3.13 (≈ 5.65 µM) | 1.56 (≈ 2.82 µM) | 6.25 (≈ 11.3 µM) | 3.13 (≈ 5.65 µM) | 12.5 (≈ 22.6 µM) | > 100 | > 100 |  |  |  |  |  | MIC [9, 13]: 0.78 µg/mL (≈ 1.41 µM)
C#CCn1cc[n+](CC2=C(C(=O)[O-])N3C(=O)C(NC(=O)/C(=N\OC(C)(C)C(=O)O)c4csc(N)n4)C3SC2)c1 (stereo not drawn) [K, 7-{2-(2-aminothiazole-4-yl)-2-[potassium(2,2-dimethylacetate)oxyimino]acetamide}-3-[3-(2-propynyl)-1-imidazoliomethyl]-3-cephem-4-carboxylate] | 0.39 | 12.5 |  | 0.39 | 0.39 |  | 0.39 |  |  |  |  | 0.78 | 0.78 | MIC ([8]; 20 h): 3.13 µg/mL; MIC [9, 13]: 0.2 µg/mL
C=C(C)Cn1c[n+](CC2=C(C(=O)[O-])N3C(=O)C(NC(=O)/C(=N\OC(C)(C)C(=O)O)c4csc(N)n4)C3SC2)c2ccccc21 (stereo not drawn) [R, 7-{2-(2-aminothiazole-4-yl)-2-[potassium(2,2-dimethylacetate)oxyimino]acetamide}-3-[benz-3-N-(2-methyl-2-propenyl)-1-imidazoliomethyl]-3-cephem-4-carboxylate] | 1.56 | 6.25 |  |  |  |  | 25 | 12.5 | 0.78 | 3.13 | 0.78 | 3.13 | 1.56 | 
C#CCn1cc[n+](CC2=C(C(=O)[O-])N3C(=O)C(NC(=O)/C(=N\OCC=C)c4csc(N)n4)C3SC2)c1 (stereo not drawn) [D, 7-[2-(2-aminothiazole-4-yl)-2-(2-propenyloxyimino)acetamide]-3-[3-(2-propynyl)-1-imidazoliomethyl]-3-cephem-4-carboxylate] | 0.78 (≈ 1.48 µM) | 0.78 (≈ 1.48 µM) |  | 1.56 (≈ 2.96 µM) | 1.56 (≈ 2.96 µM) | 3.13 (≈ 5.93 µM) | 12.5 (≈ 23.7 µM) | 12.5 (≈ 23.7 µM) | 0.78 (≈ 1.48 µM) |  |  | 0.78 (≈ 1.48 µM) |  | 
CC(C)=CCn1c[n+](CC2=C(C(=O)[O-])N3C(=O)C(NC(=O)/C(=N\OC(C)(C)C(=O)O)c4csc(N)n4)C3SC2)c2ccccc21 (stereo not drawn) [Y, 7-{2-(2-aminothiazole-4-yl)-2-[potassium(2,2-dimethylacetate)oxyimino]acetamide}-3-[benz-3-N-(3-methyl-2-butenyl)-1-imidazoliomethyl]-3-cephem-4-carboxylate] | 1.56 | 6.25 | 12.5 | 6.25 |  | 12.5 | > 100 | 25 | 6.25 |  | 3.13 |  |  | 
C=CCON=C(C(=O)NC1C(=O)N2C(C(=O)[O-])=C(Cn3cc[n+](CC(=O)c4ccccc4)c3)CSC12)c1csc(N)n1 (stereo not drawn) [B, 7-[2-(2-aminothiazole-4-yl)-2-(2-propenyloxyimino)acetamide]-3-(3-acetophenyl-1-imidazoliomethyl)-3-cephem-4-carboxylate] |  |  |  |  |  |  |  |  |  |  |  |  |  | MIC [1]: 0.10 µg/mL (≈ 0.165 µM); MIC [2]: 0.20 µg/mL (≈ 0.329 µM); MIC [3, 14]: 0.39 µg/mL (≈ 0.642 µM); MIC [4, 14]: 0.78 µg/mL (≈ 1.28 µM); MIC [5, 14]: 0.78 µg/mL (≈ 1.28 µM); MIC [6, 14]: 1.56 µg/mL (≈ 2.57 µM); MIC [7]: 1.56 µg/mL (≈ 2.57 µM); MIC [8, 14]: 6.25 µg/mL (≈ 10.3 µM); MIC ([9]; Escherichia coli NIHJ-JC2, agar dilution, 37° C., 20 hours): 0.39 µg/mL (≈ 0.642 µM)
C=CCO/N=C(\C(=O)NC1C(=O)N2C(C(=O)[O-])=C(C[n+]3ccn(CC=C)c3)CSC12)c1csc(N)n1 (stereo not drawn) [Compound A, 7-[2-(2-aminothiazole-4-yl)-2-(2-propenyloxyimino)acetamide]-3-[3-(2-propenyl)-1-imidazoliomethyl]-3-cephem-4-carboxylate] | 0.39 (≈ 0.736 µM) | 0.78 (≈ 1.47 µM) |  |  |  |  | 6.25 (≈ 11.8 µM) | 6.25 (≈ 11.8 µM) | 0.78 (≈ 1.47 µM) | 3.13 (≈ 5.91 µM) | 1.56 (≈ 2.95 µM) | 1.56 (≈ 2.95 µM) | 0.78 (≈ 1.47 µM) | 
C=CCn1c[n+](CC2=C(C(=O)[O-])N3C(=O)C(NC(=O)/C(=N\OC(C)(C)C(=O)O)c4csc(N)n4)C3SC2)c2ccccc21 (stereo not drawn) [U, 7-{2-(2-aminothiazole-4-yl)-2-[potassium(2,2-dimethylacetate)oxyimino]acetamide}-3-[benz-3-N-(2-propenyl)-1-imidazoliomethyl]-3-cephem-4-carboxylate] | 0.2 | 6.25 |  |  |  |  | 25 | 6.25 | 0.39 | 1.56 | 0.39 | 0.78 | 1.56 | 
CCCCCCn1cc[n+](CC2=C(C(=O)[O-])N3C(=O)C(NC(=O)/C(=N\OC(C)(C)C(=O)O)c4csc(N)n4)C3SC2)c1 (stereo not drawn) [J, 7-{2-(2-aminothiazole-4-yl)-2-[potassium(2,2-dimethylacetate)oxyimino]acetamide}-3-(3-n-hexyl-1-imidazoliomethyl)-3-cephem-4-carboxylate] | 0.2 | 6.25 |  |  | 0.2 | 0.78 | 6.25 | 3.12 | 0.78 | 0.39 |  | 1.56 |  | 
CCCCn1c[n+](CC2=C(C(=O)[O-])N3C(=O)C(NC(=O)/C(=N\OC(C)(C)C(=O)O)c4csc(N)n4)C3SC2)c2ccccc21 (stereo not drawn) [T, 7-{2-(2-aminothiazole-4-yl)-2-[potassium(2,2-dimethylacetate)oxyimino]acetamide}-3-(benz-3-N-butyl-1-imidazoliomethyl)-3-cephem-4-carboxylate] | 0.39 | 3.13 |  |  |  |  | 25 | 6.25 | 1.56 | 3.13 | 0.78 | 3.13 | 1.56 | 
CC=CCn1c[n+](CC2=C(C(=O)[O-])N3C(=O)C(NC(=O)/C(=N\OC(C)(C)C(=O)O)c4csc(N)n4)C3SC2)c2ccccc21 (stereo not drawn) [X, 7-{2-(2-aminothiazole-4-yl)-2-[potassium(2,2-dimethylacetate)oxyimino]acetamide}-3-[benz-3-N-(2-butenyl)-1-imidazoliomethyl]-3-cephem-4-carboxylate] | 0.78 | 6.25 |  |  |  |  | 50 | 12.5 | 1.56 | 1.56 | 1.56 | 3.13 | 1.56 | 
CC(C)(O/N=C(\C(=O)NC1C(=O)N2C(C(=O)[O-])=C(C[n+]3ccn(C4CCCCC4)c3)CSC12)c1csc(N)n1)C(=O)O (stereo not drawn) [N, 7-{2-(2-aminothiazole-4-yl)-2-[potassium(2,2-dimethylacetate)oxyimino]acetamide}-3-(3-cyclohexyl-1-imidazoliomethyl)-3-cephem-4-carboxylate] | 0.1 | 6.25 |  | 0.2 | 0.2 | 1.56 | 25 | 6.25 | 0.2 |  |  | 0.78 |  | 
C=CCO/N=C(\C(=O)NC1C(=O)N2C(C(=O)[O-])=C(C[n+]3cn(CC=C)c4ccccc43)CSC12)c1csc(N)n1 (stereo not drawn) [W, 7-[2-(2-aminothiazole-4-yl)-2-(2-propenyloxyimino)acetamide]-3-[benz-3-N-(2-propeny)-1-imidazoliomethyl]-3-cephem-4-carboxylate] | 1.56 (≈ 2.69 µM) | 1.56 (≈ 2.69 µM) | 6.25 (≈ 10.8 µM) | 6.25 (≈ 10.8 µM) |  | 25 (≈ 43.1 µM) | > 100 | 50 (≈ 86.3 µM) | 3.13 (≈ 5.4 µM) |  | 3.13 (≈ 5.4 µM) |  |  | 
C#CCn1c[n+](CC2=C(C(=O)[O-])N3C(=O)C(NC(=O)/C(=N\OC(C)(C)C(=O)O)c4csc(N)n4)C3SC2)c2ccccc21 (stereo not drawn) [Q, 7-{2-(2-aminothiazole-4-yl)-2-[potassium(2,2-dimethylacetate)oxyimino]acetamide}-3-[benz-3-N-(2-propynyl)-1-imidazoliomethyl]-3-cephem-4-carboxylate] | 0.2 | 3.13 |  |  |  |  | 12.5 |  | 0.2 | 0.39 | 0.1 | 0.78 | 0.78 | MIC ([8]; 20 h): 3.13 µg/mL

— patent publication US4906623A, “3-Imidazolium cephalosporin derivatives” (Otsuka Kagaku Kabushiki Kaisha, priority 1985, dated 1990)
